The assay concerns the target Protein mono-ADP-ribosyltransferase PARP14 (Homo sapiens, UniProt Q460N5). The assay can be described thus: Inhibition of recombinant human His6-tagged PARP14 catalytic/WWE domain (1459 to 1801 residues) expressed in Escherichia coli BL21(DE3) preincubated for 15 mins followed by biotinylated NAD+ addition by chemiluminescence assay.

Molecules are shown by their SMILES.

IC50 data for 1 compound are collected here from BindingDB's records for doi:10.1016/j.bmcl.2017.04.089 (Mcdaniel College, 2017).

Chain of Protein mono-ADP-ribosyltransferase PARP14 (Q460N5 whole entry, the tested form may be a part): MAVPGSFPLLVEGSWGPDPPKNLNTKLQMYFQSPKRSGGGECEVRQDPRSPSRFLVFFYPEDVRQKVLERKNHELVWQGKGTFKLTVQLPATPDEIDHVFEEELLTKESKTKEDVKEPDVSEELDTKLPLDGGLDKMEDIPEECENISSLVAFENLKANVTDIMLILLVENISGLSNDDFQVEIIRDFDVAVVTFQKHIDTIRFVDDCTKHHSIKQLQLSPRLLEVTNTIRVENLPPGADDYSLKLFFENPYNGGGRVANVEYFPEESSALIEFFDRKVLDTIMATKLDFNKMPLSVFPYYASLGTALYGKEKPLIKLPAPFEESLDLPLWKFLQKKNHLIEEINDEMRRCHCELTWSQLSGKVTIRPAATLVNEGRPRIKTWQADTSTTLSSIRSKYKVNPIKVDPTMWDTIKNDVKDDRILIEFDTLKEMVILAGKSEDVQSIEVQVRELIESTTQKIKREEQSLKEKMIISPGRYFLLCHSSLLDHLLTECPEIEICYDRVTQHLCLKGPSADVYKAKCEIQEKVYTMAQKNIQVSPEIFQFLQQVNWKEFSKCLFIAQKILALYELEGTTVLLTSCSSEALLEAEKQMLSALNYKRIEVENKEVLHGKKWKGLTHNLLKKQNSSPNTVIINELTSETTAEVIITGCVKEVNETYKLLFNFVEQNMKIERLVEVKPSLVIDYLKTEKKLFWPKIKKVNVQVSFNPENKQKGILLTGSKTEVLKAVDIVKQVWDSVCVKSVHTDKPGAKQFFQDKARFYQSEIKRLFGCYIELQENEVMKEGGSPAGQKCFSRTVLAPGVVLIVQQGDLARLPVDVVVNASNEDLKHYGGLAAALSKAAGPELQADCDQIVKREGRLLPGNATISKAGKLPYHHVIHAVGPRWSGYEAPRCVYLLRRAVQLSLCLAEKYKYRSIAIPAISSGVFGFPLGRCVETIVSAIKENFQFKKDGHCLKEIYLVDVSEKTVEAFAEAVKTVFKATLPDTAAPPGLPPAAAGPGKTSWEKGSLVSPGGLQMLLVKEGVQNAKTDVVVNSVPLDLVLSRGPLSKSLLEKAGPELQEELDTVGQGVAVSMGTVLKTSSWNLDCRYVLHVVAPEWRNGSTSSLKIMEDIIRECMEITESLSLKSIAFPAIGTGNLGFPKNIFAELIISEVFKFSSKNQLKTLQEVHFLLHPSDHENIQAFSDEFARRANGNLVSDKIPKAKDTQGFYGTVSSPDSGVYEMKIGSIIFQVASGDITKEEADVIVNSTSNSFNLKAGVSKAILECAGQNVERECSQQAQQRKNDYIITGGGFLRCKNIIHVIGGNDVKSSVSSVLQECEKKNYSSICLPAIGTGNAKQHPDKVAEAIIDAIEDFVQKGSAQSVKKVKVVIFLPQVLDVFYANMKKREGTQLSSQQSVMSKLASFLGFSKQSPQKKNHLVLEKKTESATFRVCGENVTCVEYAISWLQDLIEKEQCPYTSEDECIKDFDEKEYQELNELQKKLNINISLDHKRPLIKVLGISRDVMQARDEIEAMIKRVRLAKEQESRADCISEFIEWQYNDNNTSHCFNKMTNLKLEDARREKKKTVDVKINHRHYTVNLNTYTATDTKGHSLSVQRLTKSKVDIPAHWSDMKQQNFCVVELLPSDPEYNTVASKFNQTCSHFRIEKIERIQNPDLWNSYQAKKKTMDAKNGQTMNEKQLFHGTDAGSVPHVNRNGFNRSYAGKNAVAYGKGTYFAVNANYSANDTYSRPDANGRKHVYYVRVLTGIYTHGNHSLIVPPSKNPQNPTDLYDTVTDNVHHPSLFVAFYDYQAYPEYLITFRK

`NC(=O)c1cccc(NC(=O)/C=C\C(=O)N2CCCC(Oc3ccccc3)C2)c1` (stereo unspecified): the IC50 is 1.02 µM.
